Reference: patent US20110263451A1, “BIOLOGICAL MARKERS PREDICTIVE OF RHEUMATOID ARTHRITIS RESPONSE TO LYMPHOTOXIN ANTAGONISTS” (GENENTECH, INC, priority 2008, published 2011)

System: human CD4′ Th1 cells
Test: TAPI-1 effect on soluble cytokines shed into culture supernatant of re-activated Th1 cells
Type: cell-based
Procedure: High Bind 96-well microtiter plates (Meso Scale Discovery (MSD), Gaithersburg, Md.) were spotted with 5 uL goat anti-human LTα clone AF211 (R&D Systems) diluted in PBS/0.05% Tween 20 (PBS/Tween) to 2 μg/ml, and incubated for one hour at room temperature. Wells were blocked with 150 uL PBS+5% BSA for 1-2 hours with agitation. Plates were washed 6× with PBS/Tween and a titration curve of recombinant human LTα3 (Genentech Inc.) controls, and test samples diluted in high salt assay diluent (HSAD: PBS, 0.5% BSA, 0.05% Tween 20, 0.25% CHAPS, 5 mM EDTA, 0.20% BgG, 0.35M NaCl, 10% FBS) were added at 25 μl/well and incubated for 2 hours with agitation. […] Plates were washed, 500 ng/mL Strepavidin-Sulgo-TAG® (MSD) diluted in AD was added at 25 μL/well, and plates were incubated for 30 minutes with agitation. Plates were washed with PBS/Tween 6×, and 150 μl/well of Read Buffer T (MSD) diluted 1:2 in H20 was added to wells. Plates were read on an MA6000 Sector™ Imager (MSD) according to manufacturer's. A weighted 4-parameter fit standard curve was plotted using XLFit (Guildford, UK) and values of unknowns were extrapolated.
Soluble human TNF-α, was detected using a human 96-well TNF-α kit (K111BHA-4, Meso Scale Discovery) according to manufacturer's instructions.
Total human CD4^+ T cells were isolated from PBMC with a CD4^+ T cell isolation kit (Miltenyi Biotec). Cells were cultured in complete DMEM media (DMEM supplemented with 10% FBS, 2 mM glutamine, 2 μM 2-ME, 1 mM sodium pyruvate, 100 U/ml penicillin and 100 μg/ml streptomycin) in presence of 5 μg/ml anti-CD3 mAb and 2 μg/ml anti-CD28 mAb. Human Th subset polarization conditions were as follows: Th0: 5 μg/ml anti-hIL-12, 5 μg/ml anti-hIFN-γ 1 μg/ml anti-hIL-4; Th1: 1 ng/ml rhIL-12, 10 ng/ml rhIFN-γ, 1 μg/ml anti-hIL-4; Th2: 5 ng/ml rhIL-4, 5 μg/ml anti-hIL-12, 6 μg/ml anti-hIFN-γ; Th17: 10 ng/ml rhIL-23, 10 μg/ml anti-hIL-12, 10 μg/ml anti-hIFN-γ. T cells were re-stimulated with 5 μg/mL anti-CD3 and 2 μg/mL anti-CD28 with indicated amount of TNFα protease inhibitor 1 (TAPI-1) (Peptides International) or DMSO as control.
At day1 and day2 after re-stimulation, cells were collected for FACS and RNA preparation; culture supernatants were collected for LT and TNF-α quantitation.
To determine if LTαβ complexes were shed by metalloproteinase cleavage, the TNFα protease inhibitor 1 (TAPI-1), known to inhibit the cleavage of TNFα by ADAM17 protease, was tested on human CD4′ Th1 cells. Culture supernatants were analyzed for solLTαβ, LTα3 and TNFα one day post re-activation in the presence or absence of TAPI-1 (FIGS. 2A & B). T cells were collected, cultured and polarized as in Example 2 above.

[1] = Th1 cells, 10 or 50 μM TAPI-1, 1 day post re-activation

CC(C)C[C@H](CC(=O)NO)C(=O)N[C@@H](Cc1ccc2ccccc2c1)C(=O)N[C@@H](C)C(=O)NCCN [TAPI-1]
increase in cell surface LT (TAPI-1 treated Th1 cells, FACS, data not shown): not accompanied by an increase in cell surface LT | decrease of shed TNFα supernatant concentrations [1]: 3-8 fold | secreted LTα3 in supernatant [1]: not affected | decrease of soluble LTαβ levels in supernatants of re-activated cells (Th1 cells, 10 or 50 μM TAPI-1, 1 day post re-activation, dose dependent): 2-7 fold
